The results in this text go back to patent US7910109B2, “MHC class II epitopes of 5T4 antigen” (Oxford Biomedica (UK) Ltd., priority 2002, dated 2011).

The subject of one test is PBMCs from OBCR25. The test is described as follows: IFNγ ELISPOT assay after restimulation in vitro with h5T4 peptides. Type of test: cell-based, human. The conditions noted are these: PBMCs from OBCR25 restimulated in vitro with h5T4 peptides. Here is the method: FIG. 2 is a schematic diagram illustrating the ELISPOT assay for measuring antigen-specific IFNγ production.
To measure antigen-specific IFNγ production, an ELISPOT assay was conducted following the general scheme illustrated in FIG. 2.

Test [1] relates to PBMCs from breast cancer patient OBCR25. The test is described as follows: proliferation assay (3H-thymidine) with h5T4 class II peptide pools and peptides. Type of test: cell-based, human. The conditions noted are these: PBMCs of breast cancer patient OBCR25, 6 days incubation, 3H-thymidine pulse overnight. As for the experimental part: FIG. 1 is a schematic diagram illustrating the proliferation assay for measuring cellular responses
A h5T4 peptide library was produced consisting of 51 20 mer peptides overlapping by […]. Class II peptide pools containing 5 peptides per pool were incubated with PBMCs from breast cancer patients OBCR24 and OBCR25 and proliferation was measures using the assay illustrated in FIG. 1. After 6 days incubation, cells were pulsed overnight with ^3H-thymidine and incubated overnight at 37° C.

“YRYEINADPRLTNLSSNSDV (listed as Homo sapiens) [peptide #51, extreme C-terminal 20 amino acids (401-420) of h5T4; 20 mer peptide of pool #10]”: the “IFNγ ELISPOT response” value with PBMCs from OBCR25 is “positive ELISPOT response”. Besides, in test [1], the proliferative response result is “positive response”.
